These results are taken from PubChem BioAssay (NCI).

What all share (assay): NCI tumour cell line growth inhibition, 48 h
Test [1] relates to SNB-75 CNS.
Test [2] relates to PC-3 prostate.
The subject of test [3] is OVCAR-4 ovarian.
The test system of test [4] is SNB-19 CNS.
Test [5] has as its system TK-10 renal.
Test [6] concerns A498 renal.
In test [7] the test system is SF-295 CNS.
In test [8] the test system is A549 NSCLC.
Test [9] relates to UO-31 renal.
In test [10] the test system is MDA-MB-231 breast.

Where “and” joins values, the source holds several entries; their conditions need not be identical. Equal values may be shown once.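 Step 1: Grow cells in 96-well plates. Step 2: Expose to compound for 48 hours at 5 concentrations. Step 3: Interpolate endpoints linearly; if unreached, use highest concentration. At the GI50, growth is halved. TGI denotes the concentration required for complete inhibition of growth.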

On to `Cn1c2c(c3c(Cl)nncc31)Cc1ccccc1-2`, for which the GI50 is 76800 nM in test [1]; 31800 nM in test [2]; 23.9 µM in test [3]; 12.9 µM in [4]; 26.2 µM in test [5]; 11.4 µM in test [6]. Moreover, the GI50 was 17.5 µM in [7], 20.6 µM in test [8], 31.4 µM in test [9] and 21.2 µM in test [10]. In addition, the TGI is greater than 100 µM in test [1]; greater than 100 µM in test [2]; greater than 100 µM in [3]; 51.1 µM in test [4]; greater than 100 µM in [5]; 34.5 µM in test [6]. For the same molecule, the TGI in test [7] is 66.7 µM; in test [8], greater than 100 µM; in test [9] it was greater than 100 µM; in test [10], 73.5 µM.
With `C/C(=C(\c1ccc(OCCN2CCCCCC2)cc1)c1ccc(OC(=O)c2ccccc2)cc1)c1ccc(Cl)cc1`, the GI50 in [2] was 2360 nM; in [3], 3.6 µM; in [4], 6.61 µM; in test [5], 5.14 µM; in [6] it was 3.79 µM; in test [7], 2.71 µM. Moreover, the GI50 in test [8] is 4.16 µM; in test [9], 1.61 µM; in [10], 4.9 µM. The TGI in test [2] worked out at 8.45 µM; in test [3], 9.82 µM; in test [4], 18.5 µM; in test [5] it was 10.8 µM; in test [6], 8.09 µM; in test [7], 7.44 µM. Further, the TGI in test [8] is 10.9 µM; in test [9], 6.17 µM; in [10], 9.96 µM.
On to `CC[C@@H](C)/C=C(C)/C=C/C(=O)c1c(O)c(-c2ccc(O)cc2)cn(O)c1=O`, for which the GI50 in test [1] was 1380 nM; in test [2], 3200 nM; in [3], 0.261 µM; in test [4], 0.575 µM; in test [5] it was 0.524 µM; in test [6], 0.479 µM. For the same molecule, the GI50 in test [7] is 0.703 µM; in [8], 1.31 µM; in test [9] it was 0.266 µM; in test [10] it was 0.733 µM. The TGI in [1] came out at 15.7 µM; in test [2], 18.8 µM; in test [3], 12.5 µM; in test [4], 16.3 µM; in [5], 15.3 µM; in test [6], 13.1 µM. The TGI was 9.99 µM in [7], 12 µM in test [8], 3.68 µM in test [9] and 23 µM in test [10].
`CC(C)CCCCCCCCCCCCC(=O)NCC(=O)NC1C(O)C(O)C(Nc2ncnc3nc[nH]c23)OC1C(O)CO` (stereo not given): the GI50 in test [1] is less than 0.01 nM; in test [2], less than 0.01 nM; in test [3], less than 1e-05 µM; in test [5], less than 1e-05 µM; in test [6], 0.005 µM; in test [9], 0.005 µM. For the same molecule, the GI50 in test [10] is less than 1e-05 µM. The TGI in test [4] was 0.0121 µM and 0.00367 µM and 0.00683 µM; in test [6] it was 0.0123 µM and 0.0132 µM; in test [8] it was 0.00787 µM and 0.0537 µM and 0.0327 µM; in [9], 0.00451 µM and 0.0075 µM; in [10] it was 0.38 µM.
Turning to `O=C(NCC1CCCO1)c1ccc(NC2=C(Cl)C(=O)N(Cc3ccccc3)C2=O)cc1` (stereo not given), the GI50 in test [1] is 20000 nM; in [2] it was 11400 nM; in test [3], 19.2 µM; in [4], 21.5 µM; in test [6], 22.2 µM; in test [7] it was 12.1 µM. Moreover, the GI50 in [8] was 19.1 µM; in [9], 2.67 µM; in test [10], 16.8 µM. Moreover, the TGI in test [1] was found to be 39.3 µM; in test [2] it was 25 µM; in test [3], 44.6 µM; in [4], 45.1 µM; in test [6] it was 41.9 µM; in [7] it was 25 µM. For the same molecule, the results for the TGI in test [8], in test [9] and in test [10] were 50.5 µM, 8.24 µM and 46.6 µM, respectively.
Regarding `CC1(C)CCCC(C)(C2CCC3(C)C2C(O)CC2C4(C)CCC(O)C(C)(C)C4CCC23C)O1` (stereo not given), the TGI in test [1], in [2], in test [3], in test [4], in test [5] and in test [6] was greater than 100 µM each time. Also, the TGI in [7], in test [8], in test [9] and in test [10] was greater than 100 µM in each case.
Regarding `COc1cc(C(=O)c2cnc(-c3cccc4[nH]ccc34)[nH]2)cc(OC)c1OC`, the GI50 is 29.5 nM and < 10 nM in [1]; 45.7 nM and < 10 nM in test [2]; less than 0.01 µM in [3]; 0.0465 µM and < 0.01 µM in test [4]; less than 0.01 µM in [5]; 0.049 µM and < 0.01 µM in test [6]. Further, the GI50 in test [7] and in test [9] was less than 0.01 µM in each case. Also, the TGI in [1] is greater than 100 µM; in test [2] it was greater than 100 µM; in test [3], greater than 100 µM; in [4] it was greater than 100 µM; in test [5], 66.6 µM; in test [7] it was greater than 100 µM. Also, the TGI is greater than 100 µM in test [8], 21 µM in test [9] and 20.7 µM in [10].
For the molecule `CCCCCCCCCCCCOC1C(CNC(=O)C2OC3OC(C)(C)OC3C2NC(=O)CN2CCN(c3ccc(OC)cc3)CC2)OC2OC(C)(C)OC21` (stereo not given), the GI50 in test [1] is 4460 nM; in [2], 2820 nM; in test [3], 3.83 µM; in test [4], 5.3 µM; in test [5] it was 3.96 µM; in test [6], 7.96 µM. Besides, the GI50 in test [7] is 5.12 µM; in test [8] it was 3.18 µM; in test [9], 3.36 µM; in test [10] it was 5.65 µM. For the same molecule, the TGI stood at 17.4 µM in [1]; 9.79 µM in test [2]; 15.8 µM in test [3]; 17 µM in test [4]; 13.4 µM in test [5]; 20.3 µM in test [6]. The TGI in [7] is 18.4 µM; in test [8], 18.2 µM; in [9], 13.4 µM; in test [10] it was 17.8 µM.
